From patent publication US11028090B2 (Dong Wha Pharm. Co., Ltd., priority 2017, dated 2021)
Read-outs that look alike come from different tables or passages of the source.

Tests used:
[1] = biological target: BRD4 (BD1+BD2) bromodomain (Homo sapiens (Human), UniProt O60885); test: BRD4 binding inhibition (AlphaScreen, GST-BRD4 vs tetraacetylated histone H4 peptide)
How it was run: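 AlphaScreen read after 30 min dark incubation at room temperature with glutathione acceptor/streptavidin donor beads (10 μg/ml each). The beads were added to compound plus 100 nM biotin-H4 (K5,8,12,16-acetyl) peptide and 100 nM GST-BRD4 BD1+BD2 in pH 7.4 HEPES/Tween/BSA/DTT buffer.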

[2] = test system: acute myelogenous leukemia cells (MV-4-11 cells); test: Cytotoxicity to acute myelogenous leukemia cells (MV-4-11 cells), CCK-8; conditions: Homo sapiens, MV4-11, 72 h
[3] = GST-BRD4 (BD1+BD2) / biotinylated acetyl-histone H4 (Lys5,8,12,16) peptide, read-out: IC50, BRD4 binding inhibition
[4] = GST-BRD4 (BD1+BD2) vs biotinylated acetyl-histone H4 peptide, AlphaScreen, read-out: BRD4 IC50
[5] = read-out: IC50, cytotoxicity against acute myelogenous leukemia cells
[6] = read-out: MV-4-11 Cytotoxicity IC50

Compound: Cc1nnc2c(NCCCCNC(=O)C(C)(C)C)nc3cc4c(cc3n12)OCCO4 [Example 180, 2,2-dimethyl-N-[4-(1-methyl-8,9-dihydro-7,10-dioxa-2,3,5,11b-tetraaza-cyclopenta[a]anthracene-4-ylamino)-butyl]-propionamide]
- IC50 [1, 3]: ≤ 50 nM
- IC50 [1, 4]: 17 nM
- IC50 [2, 5]: ≤ 200 nM
- IC50 [2, 6]: 190 nM

Compound: Cc1nnc2c(NCCCCNC(=O)[C@@H](O)C(C)C)nc3cc4c(cc3n12)OCCO4 [Example 183, 2-(S)-hydroxy-3-methyl-N-[4-(1-methyl-8,9-dihydro-7,10-dioxa-2,3,5,11b-tetraaza-cyclopenta[a]anthracene-4-ylamino)-butyl]-butyramide]
- IC50 [1, 3]: ≤ 50 nM
- IC50 [1, 4]: 11 nM
- IC50 [2, 6]: 250 nM

Compound: Cc1nnc2c(NCCCCNC(=O)Cc3cccs3)nc3cc4c(cc3n12)OCCO4 [Example 185, N-[4-(1-methyl-8,9-dihydro-7,10-dioxa-2,3,5,11b-tetraaza-cyclopenta[a]anthracene-4-ylamino)-butyl]-2-thiophene-2-yl-acetamide]
- IC50 [1, 3]: ≤ 50 nM
- IC50 [1, 4]: 19 nM
- IC50 [2, 5]: ≤ 200 nM
- IC50 [2, 6]: 20 nM

Compound: Cc1nnc2c(NCCCCNC(=O)c3ccccc3Cl)nc3cc4c(cc3n12)OCCO4 [Example 187, 2-chloro-N-[4-(1-methyl-8,9-dihydro-7,10-dioxa-2,3,5,11b-tetraaza-cyclopenta[a]anthracene-4-ylamino)-butyl]-benzamide]
- IC50 [1, 3]: ≤ 50 nM
- IC50 [1, 4]: 24 nM
- IC50 [2, 5]: ≤ 200 nM
- IC50 [2, 6]: 110 nM

Compound: Cc1nnc2c(NCCCCNC(=O)OC(C)C)nc3cc4c(cc3n12)OCCO4 [Example 188, [4-(1-methyl-8,9-dihydro-7,10-dioxa-2,3,5,11b-tetraaza-cyclopenta[a]anthracene-4-ylamino)-butyl]-carbamic acid isopropylester]
- IC50 [1, 3]: ≤ 50 nM
- IC50 [1, 4]: 25 nM
- IC50 [2, 5]: ≤ 200 nM
- IC50 [2, 6]: 170 nM

Compound: Cc1nnc2c(NCCCCNC(=O)OCC(C)C)nc3cc4c(cc3n12)OCCO4 [Example 189, [4-(1-methyl-8,9-dihydro-7,10-dioxa-2,3,5,11b-tetraaza-cyclopenta[a]anthracene-4-ylamino)-butyl]-carbamic acid isobutylester]
- IC50 [1, 3]: ≤ 50 nM
- IC50 [1, 4]: 17 nM
- IC50 [2, 5]: ≤ 200 nM
- IC50 [2, 6]: 110 nM

Compound: CCC(C)CC(=O)NCCCCNc1nc2c(OC)c(OC)c(OC)cc2n2c(C)nnc12 (stereo not drawn) [Example 196, 3-methyl-pentanoic acid-[4-(6,7,8-trimethoxy-1-methyl-[1,2,4]triazolo[4,3-a]quinoxaline-4-ylamino)-butyl]-amide]
- IC50 [1, 3]: ≤ 50 nM
- IC50 [1, 4]: 32 nM
- IC50 [2, 6]: 550 nM

Compound: COC(=O)c1ccc2c(c1)nc(NCCCCNC(=O)CC(C)C)c1nnc(C)n12 [Example 199, 1-methyl-4-[4-(3-methyl-butyrylamino)-butylamino]-[1,2,4]triazolo[4,3-a]quinoxaline-7-carboxylic acid methylester]
- IC50 [1, 4]: 58 nM
- IC50 [2, 5]: ≤ 200 nM
- IC50 [2, 6]: 49 nM

Compound: Cc1nnc2c(NCCCCNC(=O)CC(C)C)nc3cc(C(=O)Nc4ccccc4N)ccc3n12 [Example 215, 1-methyl-4-[4-(3-methyl-butyrylamino)-butylamino]-[1,2,4]triazolo[4,3-a]quinoxaline-7-carboxylic acid-(2-amino-phenyl)-amide]
- IC50 [1, 3]: ≤ 50 nM
- IC50 [1, 4]: 22 nM
- IC50 [2, 6]: 276 nM

Compound: Cc1ccc(NC(=O)c2ccc3c(c2)nc(NCCCCNC(=O)CC(C)C)c2nnc(C)n23)c(N)c1 [Example 216, 1-methyl-4-[4-(3-methyl-butyrylamino)-butylamino]-[1,2,4]triazolo[4,3-a]quinoxaline-7-carboxylic acid-(2-amino-4-methyl-phenyl)-amide]
- IC50 [1, 3]: ≤ 50 nM
- IC50 [1, 4]: 31 nM
- IC50 [2, 6]: 240 nM

Compound: COc1cc(N)c(NC(=O)c2ccc3c(c2)nc(NCCCCNC(=O)CC(C)C)c2nnc(C)n23)cc1OC [Example 217, 1-methyl-4-[4-(3-methyl-butyrylamino)-butylamino]-[1,2,4]triazolo[4,3-a]quinoxaline-7-carboxylic acid-(2-amino-4,5-dimethoxy-phenyl)-amide]
- IC50 [1, 3]: ≤ 50 nM
- IC50 [1, 4]: 16 nM
- IC50 [2, 6]: 256 nM

Compound: Cc1nnc2c(NCCCCNC(=O)OC(C)(C)C)nc3cc(-c4nc5ccccc5[nH]4)ccc3n12 [Example 218, {4-[7-(1H-benzoimidazole-2-yl)-1-methyl-[1,2,4]triazolo[4,3-a]quinoxaline-4-ylamino]-butyl}-carbamic acid-tert-butylester]
- IC50 [1, 3]: ≤ 50 nM
- IC50 [1, 4]: 25 nM
- IC50 [2, 6]: 320 nM

Compound: Cc1ccc2[nH]c(-c3ccc4c(c3)nc(NCCCCNC(=O)OC(C)(C)C)c3nnc(C)n34)nc2c1 [Example 219, {4-[1-methyl-7-(5-methyl-1H-benzoimidazole-2-yl)-[1,2,4]triazolo[4,3-a]quinoxaline-4-ylamino]-butyl}-carbamic acid-tert-butylester]
- IC50 [1, 4]: 68 nM
- IC50 [2, 5]: ≤ 200 nM
- IC50 [2, 6]: 79 nM

Compound: Cc1nnc2c(NCCCCNC(=O)OC(C)(C)C)nc3cc(-c4nc5ccccc5n4C)ccc3n12 [Example 220, {4-[1-methyl-7-(1-methyl-1H-benzoimidazole-2-yl)-[1,2,4]triazolo[4,3-a]quinoxaline-4-ylamino]-butyl}-carbamic acid-tert-butylester]
- IC50 [1, 3]: ≤ 10 nM
- IC50 [2, 6]: 350 nM

Compound: Cc1nnc2c(NCCCCNC(=O)CC(C)C)nc3cc(-c4nc5ccccc5n4C)ccc3n12 [Example 222, 3-methyl-N-{4-[1-methyl-7-(1-methyl-1H-benzoimidazole-2-yl)-[1,2,4]triazolo[4,3-a]quinoxaline-4-ylamino]-butyl}-butyramide]
- IC50 [1, 3]: ≤ 10 nM
- IC50 [1, 4]: 1 nM
- IC50 [2, 5]: ≤ 200 nM
- IC50 [2, 6]: 53 nM

Compound: Cc1ccc2[nH]c(-c3ccc4c(c3)nc(NCCCCNC(=O)CC(C)C)c3nnc(C)n34)nc2c1 [Example 223, 3-methyl-N-{4-[1-methyl-7-(5-methyl-1H-benzoimidazole-2-yl)-[1,2,4]triazolo[4,3-a]quinoxaline-4-ylamino]-butyl}-butyramide]
- IC50 [1, 3]: ≤ 50 nM
- IC50 [1, 4]: 17 nM
- IC50 [2, 5]: ≤ 200 nM
- IC50 [2, 6]: 14 nM

Compound: Cc1nnc2c(NCCCCNC(=O)CC(C)C)nc3cc(-c4nc5ccccc5[nH]4)ccc3n12 [Example 224, N-{4-[7-(1H-benzoimidazole-2-yl)-1-methyl-[1,2,4]triazolo[4,3-a]quinoxaline-4-ylamino]-butyl}-3-methyl-butyramide]
- IC50 [1, 3]: ≤ 50 nM
- IC50 [1, 4]: 13 nM
- IC50 [2, 5]: ≤ 200 nM
- IC50 [2, 6]: 3 nM

Compound: Cc1nnc2c(NCCCCNC(=O)[C@H](O)C(C)C)nc3cc(-c4nc5ccccc5[nH]4)ccc3n12 [Example 226, N-{4-[7-(1H-benzoimidazole-2-yl)-1-methyl-[1,2,4]triazolo[4,3-a]quinoxaline-4-ylamino]-butyl}-2-(R)-hydroxy-3-methyl-butyramide]
- IC50 [1, 3]: ≤ 10 nM
- IC50 [1, 4]: 4 nM
- IC50 [2, 6]: 290 nM

Compound: COc1cc2nc(-c3ccc4c(c3)nc(NCCCCNC(=O)CC(C)C)c3nnc(C)n34)[nH]c2cc1OC [Example 227, N-{4-[7-(5,6-dimethoxy-1H-benzoimidazole-2-yl)-1-methyl-[1,2,4]triazolo[4,3-a]quinoxaline-4-ylamino]-butyl}-3-methyl-butyramide]
- IC50 [1, 3]: ≤ 10 nM
- IC50 [1, 4]: 1 nM
- IC50 [2, 5]: ≤ 200 nM
- IC50 [2, 6]: 39 nM

Compound: CCCOC(=O)NCCCCNc1nc2cc(-c3nc4ccccc4n3C)ccc2n2c(C)nnc12 [Example 228, {4-[1-methyl-7-(1-methyl-1H-benzoimidazole-2-yl)-[1,2,4]triazolo[4,3-a]quinoxaline-4-ylamino]-butyl}-carbamic acid propylester]
- IC50 [1, 3]: ≤ 10 nM
- IC50 [1, 4]: 7 nM
- IC50 [2, 5]: ≤ 200 nM
- IC50 [2, 6]: 140 nM

Compound: Cc1nnc2c(NCCCCNC(=O)OC3CCCC3)nc3cc(-c4nc5ccccc5n4C)ccc3n12 [Example 229, {4-[1-methyl-7-(1-methyl-1H-benzoimidazole-2-yl)-[1,2,4]triazolo[4,3-a]quinoxaline-4-ylamino]-butyl}-carbamic acid cyclopentylester]
- IC50 [1, 3]: ≤ 10 nM
- IC50 [1, 4]: 3 nM
- IC50 [2, 5]: ≤ 200 nM
- IC50 [2, 6]: 150 nM

Compound: Cc1nnc2c(NCCCCNC(=O)C(C)(C)C)nc3cc(-c4nc5ccccc5n4C)ccc3n12 [Example 230, 2,2-dimethyl-N-{4-[1-methyl-7-(1-methyl-1H-benzoimidazole-2-yl)-[1,2,4]triazolo[4,3-a]quinoxaline-4-ylamino]-butyl}-propionamide]
- IC50 [1, 3]: ≤ 50 nM
- IC50 [1, 4]: 13 nM
- IC50 [2, 6]: 580 nM

Compound: CCC(F)(F)C(=O)NCCCCNc1nc2cc(-c3nc4ccccc4n3C)ccc2n2c(C)nnc12 [Example 233, 2,2-difluoro-N-{4-[1-methyl-7-(1-methyl-1H-benzoimidazole-2-yl)-[1,2,4]triazolo[4,3-a]quinoxaline-4-ylamino]-butyl}-butyramide]
- IC50 [1, 3]: ≤ 10 nM
- IC50 [1, 4]: 2 nM
- IC50 [2, 5]: ≤ 200 nM
- IC50 [2, 6]: 71 nM

Compound: Cc1nnc2c(NCCCCNC(=O)[C@@H](O)C(C)C)nc3cc(-c4nc5ccccc5n4C)ccc3n12 [Example 234, 2-(S)-hydroxy-3-methyl-N-{4-[1-methyl-7-(1-methyl-1H-benzoimidazole-2-yl)-[1,2,4]triazolo[4,3-a]quinoxaline-4-ylamino]-butyl}-butyramide]
- IC50 [1, 3]: ≤ 10 nM
- IC50 [1, 4]: 6 nM
- IC50 [2, 5]: ≤ 200 nM
- IC50 [2, 6]: 47 nM

Compound: Cc1nnc2c(NCCCCNC(=O)[C@H](O)C(C)C)nc3cc(-c4nc5ccccc5n4C)ccc3n12 [Example 235, 2-(R)-hydroxy-3-methyl-N-{4-[1-methyl-7-(1-methyl-1H-benzimidazole-2-yl)-[1,2,4]triazolo[4,3-a]quinoxaline-4-ylamino]-butyl}-butyramide]
- IC50 [1, 3]: ≤ 50 nM
- IC50 [1, 4]: 11 nM
- IC50 [2, 6]: 390 nM
